From patent US10906940B2, “Antimicrobial peptides, pharmaceutical compositions, and methods of use thereof” (priority 2014, dated 2021)
Where a SMILES comes first, the peptide text is derived from it. Bridges are numbered along the chain shown (N, C = ends). [ ]: non-standard residue; d: D form. The star is where a group is joined. Pentadecanoyl = CCCCCCCCCCCCCCC(=O)*; Tridecanoyl = CCCCCCCCCCCCC(=O)*; Undecanoyl = CCCCCCCCCCC(=O)*; dOrn = NCCC[C@@H](N)C(=O)O

How the values were obtained:
[1] = tested on: K. pneumoniae CVM 9246 (shv18, oxa2); format: cell-based, Klebsiella pneumoniae
Source text: (§1) The same MIC assay as in Example 6 was used to determine the antimicrobial susceptibility of Compound A, L-form (FIG. 15), and several variants. One variant was Compound A, D-form, with D-Lysine at position 7. Compound B is a variant in the fatty acid chain, with a fatty acid chain composition of C15H29O, and having D-Lys at position 7. Compound C is a variant in the fatty acid chain with a fatty acid chain composition of C11H21O, and having D-Lys at position 7. Variant D is a sequence variant with Phe at position 6 of the cyclic peptide, and having D-Lys at position 7. All variants were chemically synthesized.

[2] = tested on: K. pneumoniae CVM 15102 (shv5); format: cell-based, Klebsiella pneumoniae
Source text: as §1

[3] = tested on: K. pneumonia CVM 15105 (shv5); format: cell-based, Klebsiella pneumoniae
Source text: as §1

[4] = tested on: K. pneumonia CVM 40142 (ges-1); format: cell-based, Klebsiella pneumoniae
Source text: as §1

[5] = tested on: P. aeruginosa CVM 40144 (PER-1); format: cell-based, Pseudomonas aeruginosa
Source text: as §1

[6] = tested on: E. coli CVM 15103 (tem2); format: cell-based, Escherichia coli
Source text: as §1

[7] = tested on: S. Typhimurium CVM 40117 (ctx-m-5); format: cell-based, Salmonella
Source text: as §1

[8] = tested on: S. Keur massar CVM 40135 (shv12); format: cell-based, Salmonella
Source text: as §1

[9] = tested on: S. Bareilly CVM40145 (ACC-1); format: cell-based, Salmonella
Source text: as §1

[10] = tested on: S. Newport CVM 40115 (cmy 2); format: cell-based, Salmonella
Source text: as §1

[11] = tested on: S. Heidelberg CVM 40140 (cmy-2); format: cell-based, Salmonella
Source text: as §1

[12] = tested on: E. faecium ATCC 2320; test: microbe, parasite or virus in culture; format: cell-based; settings: ATCC 2320
Source text: as §1

[13] = tested on: E. faecium ATCC 700221; test: microbe, parasite or virus in culture; format: cell-based; settings: ATCC 700221
Source text: as §1

[14] = tested on: E. faecium BAA-2318; test: microbe, parasite or virus in culture; format: cell-based; settings: BAA-2318
Source text: as §1

[15] = tested on: E. cloacae CVM 15101 (P99); format: cell-based, Enterobacter cloacae
Source text: as §1

[16] = tested on: Enterobacter cloacae SBJ-7612; settings: SBJ-7612
[17] = tested on: P. aeruginosa SBJ-10886
[18] = tested on: E. coli O157: H7 EDL933
[19] = tested on: P. aeruginosa ATCC-27853; settings: ATCC-27853
[20] = tested on: Klebsiella pneumoniae SBJ-9149; settings: SBJ-9149
[21] = tested on: Salmonella Newport #17
[22] = tested on: P. aeruginosa -02
[23] = tested on: Klebsiella pneumoniae SBJ-9388; settings: SBJ-9388
[24] = tested on: E. faecalis ATCC 29212
[25] = tested on: Klebsiella pneumoniae SBJ-9483; settings: SBJ-9483
[26] = tested on: carbapenem-resistant (CRE) strains and MRSA strains; test: Broth microdilution MIC, summary of spectrum; format: cell-based
[27] = tested on: Listeria monocytogenes R2-583
[28] = tested on: P. aeruginosa -01
[29] = tested on: S. aureus ATCC 29213
[30] = tested on: P. aeruginosa -03
[31] = tested on: S. aureus ATCC25923
[32] = tested on: Enterobacter sakazakii E784
[33] = tested on: Enterobacter cloacae SBJ-9222; settings: SBJ-9222
[34] = tested on: P. aeruginosa SBJ-10884
[35] = tested on: E. coli ATCC 25853; settings: ATCC 25853

CCCCCCCCCCCCC(=O)N[C@H](CCCN)C(=O)N[C@H](C(=O)N[C@@H]1C(=O)N[C@H](CCCN)C(=O)N[C@@H](CO)C(=O)N[C@@H](Cc2ccc(O)cc2)C(=O)N[C@H](CCCCN)C(=O)N[C@H](CO)C(=O)N[C@@H]([C@@H](C)CC)C(=O)N2CCC[C@H]2C(=O)N[C@@H]([C@@H](C)CC)C(=O)N2CCC[C@H]2C(=O)N[C@@H]([C@@H](C)CC)C(=O)O[C@@H]1C)C(C)C [Compound A D-form] (Tridecanoyl-[dOrn]VT[dOrn]SY[dK][dS]IPIPI; ester 3-C)
8 µg/mL: MIC [1] | MIC [2] | MIC [3] | MIC [4] | MIC [6] | MIC [7] | MIC [9] | MIC [10] | MIC [12] | MIC [13] | MIC [15]
4 µg/mL: MIC [14]
16 µg/mL: MIC [5] | MIC [8] | MIC [11]

CCCCCCCCCCCCC(=O)N[C@H](CCCN)C(=O)N[C@H](C(=O)N[C@@H]1C(=O)N[C@H](CCCN)C(=O)N[C@@H](CO)C(=O)N[C@@H](Cc2ccc(O)cc2)C(=O)N[C@@H](CCCCN)C(=O)N[C@H](CO)C(=O)N[C@@H]([C@@H](C)CC)C(=O)N2CCC[C@H]2C(=O)N[C@@H]([C@@H](C)CC)C(=O)N2CCC[C@H]2C(=O)N[C@@H]([C@@H](C)CC)C(=O)O[C@@H]1C)C(C)C [Compound A L-form] (Tridecanoyl-[dOrn]VT[dOrn]SYK[dS]IPIPI; ester 3-C)
much greater sensitivity: sensitivity of bacteria compared with paenibacterin of US2013/0164317 ([26]; comparison in words)
8 µg/mL: MIC [1] | MIC [2] | MIC [3] | MIC [4] | MIC [19] | MIC [22] | MIC [6] | MIC [7] | MIC [10] | MIC [28] | MIC [30] | MIC [32] | MIC [15] | MIC [33]
32 µg/mL: MIC [5]
4 µg/mL: MIC [16] | MIC [17] | MIC [18] | MIC [20] | MIC [23] | MIC [24] | MIC [25] | MIC [29] | MIC [12] | MIC [13] | MIC [14] | MIC [34] | MIC [35]
2 µg/mL: MIC [27] | MIC [31]
very potent activity: activity against CRE strains and MRSA strains ([26]; summary of Table 6)
16 µg/mL: MIC [21] | MIC [8] | MIC [9] | MIC [11]

CCCCCCCCCCCCCCC(=O)N[C@H](CCCN)C(=O)N[C@H](C(=O)N[C@@H]1C(=O)N[C@H](CCCN)C(=O)N[C@@H](CO)C(=O)N[C@@H](Cc2ccc(O)cc2)C(=O)N[C@H](CCCCN)C(=O)N[C@H](CO)C(=O)N[C@@H]([C@@H](C)CC)C(=O)N2CCC[C@H]2C(=O)N[C@@H]([C@@H](C)CC)C(=O)N2CCC[C@H]2C(=O)N[C@@H]([C@@H](C)CC)C(=O)O[C@@H]1C)C(C)C [Compound B] (Pentadecanoyl-[dOrn]VT[dOrn]SY[dK][dS]IPIPI; ester 3-C; N-terminus assumed)
8 µg/mL: MIC [1] | MIC [2] | MIC [6] | MIC [15]
4 µg/mL: MIC [12] | MIC [13] | MIC [14]
16 µg/mL: MIC [3] | MIC [4] | MIC [7] | MIC [10] | MIC [11]
32 µg/mL: MIC [5] | MIC [8] | MIC [9]

CCCCCCCCCCC(=O)N[C@H](CCCN)C(=O)N[C@H](C(=O)N[C@@H]1C(=O)N[C@H](CCCN)C(=O)N[C@@H](CO)C(=O)N[C@@H](Cc2ccc(O)cc2)C(=O)N[C@H](CCCCN)C(=O)N[C@H](CO)C(=O)N[C@@H]([C@@H](C)CC)C(=O)N2CCC[C@H]2C(=O)N[C@@H]([C@@H](C)CC)C(=O)N2CCC[C@H]2C(=O)N[C@@H]([C@@H](C)CC)C(=O)O[C@@H]1C)C(C)C [Compound C] (Undecanoyl-[dOrn]VT[dOrn]SY[dK][dS]IPIPI; ester 3-C; N-terminus assumed)
8 µg/mL: MIC [1] | MIC [2] | MIC [3] | MIC [4] | MIC [6] | MIC [12] | MIC [13] | MIC [14] | MIC [15]
16 µg/mL: MIC [5] | MIC [7] | MIC [8] | MIC [9] | MIC [10] | MIC [11]

CCCCCCCCCCCCC(=O)N[C@H](CCCN)C(=O)N[C@H](C(=O)N[C@@H]1C(=O)N[C@H](CCCN)C(=O)N[C@@H](CO)C(=O)N[C@@H](Cc2ccccc2)C(=O)N[C@H](CCCCN)C(=O)N[C@H](CO)C(=O)N[C@@H]([C@@H](C)CC)C(=O)N2CCC[C@H]2C(=O)N[C@@H]([C@@H](C)CC)C(=O)N2CCC[C@H]2C(=O)N[C@@H]([C@@H](C)CC)C(=O)O[C@@H]1C)C(C)C [Variant D] (Tridecanoyl-[dOrn]VT[dOrn]SF[dK][dS]IPIPI; ester 3-C; N-terminus assumed)
32 µg/mL: MIC [9]
16 µg/mL: MIC [5] | MIC [8] | MIC [11]
8 µg/mL: MIC [1] | MIC [2] | MIC [3] | MIC [4] | MIC [6] | MIC [7] | MIC [10] | MIC [12] | MIC [13] | MIC [14] | MIC [15]
